Tested on: A549 (human lung cancer cell) xenograft
Experiment: Tumor regression effect in tumor-bearing mice by iTAP treatment (A549 cell line xenograft mouse)
Assay type: in vivo, BALB/c Slc-nu/nu mice
Conditions: Laserphyrin 5 mg/kg with 664 nm laser light 30 J/cm^2, IT-Cetuximab 3 mg/kg, alone or combined
Description: Separately cultured A549 cells were adjusted to 1×10^7 cells/100 μL, and the cells were subcutaneously administered (SC) to the right thigh of 7-week-old male BALB/c Slc-nu/nu mice, and xenograft mice (tumor-bearing mice) were produced. Tumor size was calculated using the following formula.
Tumor volume (mm^3)=major axis (mm)×minor axis (mm)×minor axis (mm)×0.5
When the tumor size of the mice reached an average size of approximately 150 mm^3, the mice were randomly divided into the following groups (n=3). • Condition (1) Control group: No administration • Condition (2) Laserphyrin (5 mg/kg) administration and 664 nm laser light (30 J/cm^2) • irradiation group • Condition (3) IT-Cetuximab (3 mg/kg) administration group • Condition (4) Laserphyrin (5 mg/kg), IT-Cetuximab (3 mg/kg) administration and 664 nm laser light (30 J/cm^2) irradiation group
IT-Cetuximab was administered intraperitoneally to mice, and 2 days later, Laserphyrin was administered through the tail vein. Furthermore, 2 hours after the administration of Laserphyrin, the tumor site was locally irradiated with a 664 nm laser light.
Tumor size was measured every 3 to 5 days after administration.

In the case of `C=Cc1c(C)c2cc3nc(c(CC(=O)N[C@@H](CC(=O)O)C(=O)O)c4[nH]c(cc5nc(cc1[nH]2)C(C)=C5CC)c(C)c4C(=O)O)[C@@H](CCC(=O)O)[C@@H]3C` [Laserphyrin, Talaporfin Sodium], the “macroscopic observation of the tumor” value is reported as “tumor growth was confirmed macroscopically”.
